Measurements as given in patent US10806744B2, “Edible composition” (Conopco, Inc., priority 2015, dated 2020).
Where “and” joins values, the source holds several entries; their conditions need not be identical. Identical values can stand only once.

Columns and labels:
GLUT2 = biological target: T1, GLUT2 (Homo sapiens, UniProt P11168); experiment: Glucose transport inhibitor cell screening assay, 25 mM D-glucose for 30 minutes; details: for inhibition at 300 µM: Caco-2, read-out: % Glucose transport inhibiton 25 mM; for identified as inhibitors of GLUT2: Caco-2 cell assay
T1 sequence (P11168 1-524): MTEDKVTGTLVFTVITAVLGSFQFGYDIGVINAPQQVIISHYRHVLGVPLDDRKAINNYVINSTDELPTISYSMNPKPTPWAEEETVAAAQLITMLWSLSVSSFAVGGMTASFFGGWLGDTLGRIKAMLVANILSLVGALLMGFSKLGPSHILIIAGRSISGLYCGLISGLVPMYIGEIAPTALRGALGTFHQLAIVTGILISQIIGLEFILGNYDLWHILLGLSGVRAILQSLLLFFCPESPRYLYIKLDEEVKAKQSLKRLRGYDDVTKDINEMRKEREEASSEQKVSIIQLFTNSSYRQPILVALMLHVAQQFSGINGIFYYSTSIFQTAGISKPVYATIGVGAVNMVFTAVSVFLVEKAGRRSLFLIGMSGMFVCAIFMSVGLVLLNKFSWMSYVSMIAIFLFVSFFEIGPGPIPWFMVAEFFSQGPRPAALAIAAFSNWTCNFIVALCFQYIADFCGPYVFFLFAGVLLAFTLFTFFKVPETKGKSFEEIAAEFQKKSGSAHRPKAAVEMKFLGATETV
Protocol: (§1) Human epithelial colorectal adenocarcinoma (Caco-2) cells were obtained from the American Type Culture Collection (ATCC) and cultured in Growth Medium consisting of Dulbecco's modified Eagle's medium (containing Glutamax-1, 4.5 g/L D-glucose and 25 mM 4-(2-hydroxyethyl)-1-piperazine ethanesulphonic acid (Hepes) (Invitrogen)), 10% foetal bovine serum (Sigma), 1% non-essential amino acids (Invitrogen) and 1 mM sodium pyruvate (Sigma)). The cells were routinely passaged at approximately 80% confluence using TrypLE™ Express Stable Trypsin-Like Enzyme (Invitrogen) to detach the cells, and seeded at approximately 114 cells per mm^2 in fresh tissue culture flasks. Only cells between the passage numbers 45 and 49 were used for experiments.
(§2) Corning® HTS Transwell® 96 well permeable insert supports (Sigma) were collagen coated with 40 μl of 50 μg/ml rat tail collagen type I (BD Biosciences) in 0.02 M acetic acid for one hour at room temperature under sterile conditions. The inserts were washed twice in phosphate buffered saline (PBS (Invitrogen)) and the Caco-2 cells seeded into the inserts at 1.0×10^6 cell/ml (75 μl per insert) in Growth Medium and 30 ml of Growth Medium added to the feeder plate below. The cells were left to attach to the collagen matrix and form monolayers over 48 hours at 37° C., 5% CO2. Both inserts and feeder plate were washed in PBS and the cells incubated with BD Entero-STIM™ Enterocyte Differentiation Medium containing MITO+™ Serum Extender solution (both BD Biosciences), 75 μl per insert and 30 ml in the feeder plate, for a further 48 hours at 37° C., 5% CO2.
(§3) Differentiated cell monolayers were washed gently in Dulbecco's Phosphate Buffered Saline containing CaCl2 and MgCl2 (PBS(+) (Invitrogen)) and the inserts transferred to a new Corning® HTS Transwell®-96 well receiver plate (Sigma). The cells were incubated with fresh PBS(+) (75 μl per insert and 225 μl per well) for 60 minutes at 37° C., 5% CO2. The PBS(+) was gently aspirated and replaced with 75 μl per insert of either 5 mM D-glucose (Sigma)±test compound or 25 mM D-glucose±test compound in triplicate and 225 μl per well of PBS(+) quickly added to each well. The 5 mM glucose wells and the 25 mM glucose wells were incubated at 37° C., 5% CO2 for 15 minutes and 30 minutes, respectively. […] The cell inserts were transferred to a new receiver plate, the supernatant gently aspirated from the cells and replaced with 100 μl of 100 μM of Lucifer Yellow (Sigma) solution to confirm the integrity of the monolayers. 225 μl of PBS(+) was added to each well and incubated at 37° C., 5% CO2 for 1 hour. The cell inserts were then discarded and the permeability of the membranes to Lucifer Yellow checked by measuring the fluorescence of the samples at 485 nm (excitation) and 530 nm (emission) on a Spectramax Gemini EM fluorescence microplate reader.
(§4) The amount of glucose transported across the cell monolayers was measured using a glucose assay based on Invitrogen's Amplex Red Glucose/Glucose oxidase Assay Kit. Briefly, 50 μl of each test sample was transferred to a black sided/clear bottom 96-well plate (Greiner Bio-One) to which 100 μl of reaction buffer (0.5 μl 10 mM Ampliflu Red, 1 μl 10 U/ml Horse Radish peroxidase, 1 μl 100 U/ml glucose oxidase and 97.5 μl PBS (all Sigma)) was added. After 10 minutes incubation at room temperature, the fluorescence of the samples was measured at 530 nm (excitation) and 590 nm (emission) on a Spectramax Gemini EM fluorescence microplate reader and the glucose concentration extrapolated from a standard curve.
(§5) At higher D-glucose concentrations, the SGLT1 transporter becomes saturated and consequently the majority of glucose transport across the monolayer is driven by the low affinity, high capacity GLUT2 transporter that is targeted to the apical membrane only following an initial SGLT1-dependent transport of glucose.

[1] = system: glucose transport across differentiated Caco-2 cell monolayers; experiment: Glucose transport cell model: 5 mM D-glucose 15 minutes, then 25 mM for 45 minutes, cumulative glucose transport; type: cell-based, human; design: unit not given here; details: duplicate
Protocol: Caco-2 cells were cultured and routinely passaged as described in Example 1.
After the last incubation, all of the retained PBS(+) from each step (i.e. at 15, 30, 45 and 60 minutes) was assayed for glucose levels as described in Example 1, and the total cumulative glucose transport calculated. The localised changes in luminal glucose concentrations described and illustrated in example 1 are mimicked in-vitro through an initial short incubation of differentiated Caco-2 cells with a low level of D-glucose (5 mM for 15 minutes) immediately followed by a sustained incubation with a high level of D-glucose (final concentration of 25 mM for 45 minutes).
In the above table, every test pairing of a homisoflavonoid (HIF) and a flavonoid monoglucoside (FM) has 5 values reported: • 1. No Compound (NC)+NC • 2.
Synergy is achieved when the inhibition caused by the combination of HIF and FM is greater than the sum of the inhibition due to HIF alone added to the inhibition due to FM alone.

SGLT1 = biological target: T2, SGLT1 (Homo sapiens, UniProt P13866); experiment: Glucose transport inhibitor cell screening assay, 5 mM D-glucose for 15 minutes; details: for inhibition at 300 µM: Caco-2, read-out: % Glucose transport inhibiton 5 mM
T2 sequence (P13866 1-664): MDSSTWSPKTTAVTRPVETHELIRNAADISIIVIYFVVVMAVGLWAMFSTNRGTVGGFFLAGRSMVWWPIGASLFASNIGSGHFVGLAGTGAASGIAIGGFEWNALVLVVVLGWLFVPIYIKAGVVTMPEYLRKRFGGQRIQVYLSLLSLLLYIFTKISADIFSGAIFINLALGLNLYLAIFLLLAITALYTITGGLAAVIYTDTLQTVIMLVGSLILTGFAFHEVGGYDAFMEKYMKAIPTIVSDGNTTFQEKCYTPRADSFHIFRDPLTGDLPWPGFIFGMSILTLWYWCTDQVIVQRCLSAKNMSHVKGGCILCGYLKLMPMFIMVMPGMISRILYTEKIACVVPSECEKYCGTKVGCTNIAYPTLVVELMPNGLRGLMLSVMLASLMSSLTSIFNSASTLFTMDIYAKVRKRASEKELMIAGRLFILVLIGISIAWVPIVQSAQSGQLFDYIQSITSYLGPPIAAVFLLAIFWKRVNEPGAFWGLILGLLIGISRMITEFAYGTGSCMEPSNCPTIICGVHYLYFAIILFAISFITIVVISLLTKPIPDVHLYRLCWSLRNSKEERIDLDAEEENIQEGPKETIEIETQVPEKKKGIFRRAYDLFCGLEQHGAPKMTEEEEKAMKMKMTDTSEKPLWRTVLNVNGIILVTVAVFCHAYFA
Protocol: as §1, §2, §3, §4, §5

SGLT1 and GLUT2 = experiment: Assigned class of transporter inhibited, from Caco-2 screening at 5 mM and 25 mM D-glucose; type: cell-based, human; details: from % inhibition at 5 mM and 25 mM D-glucose; compound 300 μM
[2] = homoisoflavonoid 5 uM alone, added at 25 mM glucose step (NC at 5 mM)

Row | SMILES | inhibition at 300 µM (GLUT2) [%] | identified as inhibitors of GLUT2 (GLUT2) | inhibition at 300 µM (SGLT1) [%] | identified as inhibitors of SGLT1 (SGLT1; Caco-2 cell assay) | Cumulative (AVE) glucose transport ([1]; homoisoflavonoid 10 uM alone, added at 25 mM glucose step (NC at 5 mM)) | Class (assigned class of transporter inhibited) (SGLT1 and GLUT2) | Cumulative (AVE) glucose transport ([1]; homoisoflavonoid 2.5 uM alone, added at 25 mM glucose step (NC at 5 mM)) | Cumulative (AVE) glucose transport [1, 2] | Cumulative (AVE) glucose transport ([1]; flavonoid monoglucoside 300 uM alone, added at 5 mM glucose step only (NC at 25 mM), listed as T) | Cumulative (AVE) glucose transport ([1]; flavonoid monoglucoside 300 uM alone, added at 25 mM glucose step only (NC at 5 mM), listed as T)
1 | Cc1c(O)c(C)c2c(c1O)C(=O)[C@H](Cc1ccc3c(c1)OCO3)CO2 [MOA, methylophiopogonanone A] | 27.7 ± 3.7 | inhibitors of GLUT2 | 39.3 ± 2.17 |  |  | GLUT2 (GLUT2 inhibitors having ≥20% inhibition at both 5 mM and 25 mM D-glucose levels) |  | 231.69 |  | 
2 | COc1ccc(C[C@@H]2COc3c(C)c(O)c(C)c(O)c3C2=O)cc1 [MOB, methylophiopogonanone B] | 30.6 ± 3.2 | inhibitors of GLUT2 | 46.2 ± 2.04 |  |  | GLUT2 (GLUT2 inhibitors having ≥20% inhibition at both 5 mM and 25 mM D-glucose levels) |  | 200.59 |  | 
3 | COc1c(O[C@@H]2O[C@H](CO)[C@@H](O)[C@H](O)[C@H]2O)cc2occ(-c3ccc(O)cc3)c(=O)c2c1O [Tectoridin] | 4.92 ± 2.08 |  | 29.4 ± 0.62 | inhibitors of SGLT1 |  | SGLT1 |  |  | 346.92 and 321.4 and 298.40 | 395.85 and 304.5 and 298.98

Continued, in another order:

Row | inhibition at 300 µM (GLUT2) [%] | identified as inhibitors of GLUT2 (GLUT2) | inhibition at 300 µM (SGLT1) [%] | identified as inhibitors of SGLT1 (SGLT1; Caco-2 cell assay) | SMILES | Cumulative (AVE) glucose transport ([1]; homoisoflavonoid 10 uM alone, added at 25 mM glucose step (NC at 5 mM)) | Class (assigned class of transporter inhibited) (SGLT1 and GLUT2) | Cumulative (AVE) glucose transport ([1]; homoisoflavonoid 2.5 uM alone, added at 25 mM glucose step (NC at 5 mM)) | Cumulative (AVE) glucose transport [1, 2] | Cumulative (AVE) glucose transport ([1]; flavonoid monoglucoside 300 uM alone, added at 5 mM glucose step only (NC at 25 mM), listed as T) | Cumulative (AVE) glucose transport ([1]; flavonoid monoglucoside 300 uM alone, added at 25 mM glucose step only (NC at 5 mM), listed as T)
4 | 63 ± 2.94 | inhibitors of GLUT2 | 89.9 ± 0.06 |  | COc1c(O)c(C)c(O)c2c1OCC(Cc1ccc(O)cc1)C2=O (centres unmarked) [EA2, 5,7-dihydroxy-3-(4′-hydroxybenzyl)-6-methyl-8-methoxychroman-4-one] | 283.98 | GLUT2 (GLUT2 inhibitors having ≥20% inhibition at both 5 mM and 25 mM D-glucose levels) |  |  |  | 
5 | 67.4 ± 5.87 | inhibitors of GLUT2 | 91.15 ± 0.46 |  | Cc1c(O)c(C)c2c(c1O)C(=O)C(Cc1ccc(O)cc1)CO2 (centres unmarked) [EA3, 5,7-dihydroxy-3-(4′-hydroxybenzyl)-6,8-dimethylchroman-4-one] |  | GLUT2 (GLUT2 inhibitors having ≥20% inhibition at both 5 mM and 25 mM D-glucose levels) | 291.33 |  |  | 
